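Dose response: 5 concentrations. Exposure: 48 h. Format: 96-well plates. Endpoint: linear interpolation; highest concentration if not reached. GI50 marks 50% less growth. TGI denotes the concentration required for complete inhibition of growth.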
Columns and labels:
Experiment in all cases: growth of human tumour cells (NCI), 48 h
[1] = test system: 786-0 renal
[2] = test system: A498 renal
[3] = test system: A549 NSCLC
[4] = test system: ACHN renal
[5] = test system: BT-549 breast
[6] = test system: CAKI-1 renal
[7] = test system: CCRF-CEM leukemia
[8] = test system: COLO 205 colon
[9] = test system: DU-145 prostate
[10] = test system: EKVX NSCLC
[11] = test system: HCC-2998 colon
[12] = test system: HCT-116 colon
[13] = test system: HCT-15 colon
[14] = test system: HL-60(TB) leukemia
[15] = test system: HOP-62 NSCLC
[16] = test system: HOP-92 NSCLC
[17] = test system: HS 578T breast
[18] = test system: HT29 colon
[19] = test system: IGROV1 ovarian
[20] = test system: K-562 leukemia
[21] = test system: KM12 colon
[22] = test system: LOX IMVI melanoma
[23] = test system: M14 melanoma
[24] = test system: MALME-3M melanoma
[25] = test system: MCF7 breast
[26] = test system: MDA-MB-231 breast
[27] = test system: MDA-MB-435
[28] = test system: MDA-MB-468 breast
[29] = test system: MOLT-4 leukemia
[30] = test system: NCI-H226 lung

N/C(=N\c1nc2ccccc2s1)NC(=O)Nc1ccc(Cl)cc1Cl
GI50 [1]: 456 nM
TGI [1]: 1760 nM
GI50 [2]: 1640 nM
TGI [2]: 3730 nM
GI50 [3]: 878 nM
TGI [3]: 2840 nM
GI50 [4]: 574 nM
TGI [4]: 2080 nM
GI50 [5]: 414 nM
TGI [5]: 5040 nM
GI50 [6]: 389 nM
TGI [6]: 2210 nM
GI50 [7]: 360 nM
TGI [7]: 3800 nM
GI50 [8]: 491 nM
TGI [8]: 1780 nM
GI50 [9]: 1000 nM
TGI [9]: 3060 nM
GI50 [10]: 489 nM
TGI [10]: 2660 nM
GI50 [11]: 978 nM
TGI [11]: 2860 nM
GI50 [12]: 384 nM
TGI [12]: 1510 nM
GI50 [13]: 379 nM
TGI [13]: 1980 nM
GI50 [14]: 295 nM
GI50 [15]: 397 nM
TGI [15]: 1810 nM
GI50 [16]: 923 nM
TGI [16]: 3910 nM
GI50 [17]: 289 nM
TGI [17]: 2430 nM
GI50 [18]: 341 nM
TGI [18]: 1150 nM
GI50 [19]: 558 nM
TGI [19]: 2350 nM
GI50 [20]: 370 nM
GI50 [21]: 439 nM
TGI [21]: 3600 nM
GI50 [22]: 567 nM
TGI [22]: 1960 nM
GI50 [23]: 390 nM
TGI [23]: 1840 nM
GI50 [24]: 454 nM
TGI [24]: 2130 nM
GI50 [25]: 309 nM
TGI [25]: 1780 nM
GI50 [26]: 571 nM
TGI [26]: 2180 nM
GI50 [27]: 160 nM
TGI [27]: 510 nM
GI50 [28]: 271 nM
TGI [28]: 788 nM
GI50 [29]: 536 nM
GI50 [30]: 948 nM
TGI [30]: 2680 nM
